# Experimental data taken from patent US7994326B2 (Northwestern University, priority 2003, dated 2011).
# Read-outs that look alike come from different tables or passages of the source.
# What was measured:
# Format in all cases: biochemical
# rat nNOS = target: T1, rat nNOS (Rattus norvegicus, UniProt P29476); assay: NOS enzyme inhibitory assay (hemoglobin capture), nNOS; conditions: Table 1a; for Selectivity n/e: Ki(eNOS)/Ki(nNOS); for Selectivity n/i: Ki(iNOS)/Ki(nNOS); for Ki: apparent Ki calculated from IC50, Km […], read-out: calc. Ki nNOS; for IC50: rat nNOS, 10 μM L-arginine
# T1 construct: made in house; host or cells: E. coli (plasmid pCWnNOS)
# Procedure: (§1) All of the NOS isoforms used were recombinant enzymes overexpressed in E. coli from different sources. Nitric oxide formation from NOS was monitored by the hemoglobin capture assay as described in the literature.
# After approximately 48 h of post-induction incubation in the dark at 25° C. the cells were pelleted at 5300×g, transferred to 50 mL conical tubes, and stored at −80° C.
# nNOS purification: Cell pellets from 2.0 L of culture were resuspended in sonication Buffer A (50 mM Tris Base Buffer, pH 8.0, 10% glycerol), 2 mg/ml lysozyme. 0.5 mM L-arginine. 1 mM EDTA, 0.1 mM PMSF, 1 µg/ml antipain, and 1 μM each of leupeptin, […], and […]) and lysed by sonication. Centrifugation for 1 h at 100000×g yielded supernatant which contained nNOS active enzyme. The supernatant was brought to 2 mM CaCl2 and the protein was loaded onto a 15 ml calmodulin-Sepharose column equilibrated with Buffer A containing 2 mM CaCl2. The column was washed with 100 ml Buffer B (50 mM Hepes, 5 mM DTT, and […]) containing 2 mM CaCl2, 0.5 mM L-arginine, and 10 μM BH4, and eluted with 30 ml Buffer B supplemented with 0.3 M NaCl, 5 mM EGTA, 0.5 mM L-arginine, and 10 μM BH4. The protein was then loaded onto a 5 ml 2′,5′-ADP-Sepharose column equilibrated with Buffer B supplemented with 0.3 M NaCl, 0.5 mM L-arginine, and 10 μM BH4. The column was washed with 25 ml Buffer B containing 0.5 mM L-arginine and 10 μM BH4, and then 25 ml of Buffer B only supplemented with 10 μM BH4 (without L-arginine). Neuronal NOS was eluted with 20 ml Buffer B supplemented with 10 mM 2′(3′)-AMP, 10 μM BH4 and 0.3 M NaCl. The 20 ml eluent was then concentrated to 5 ml by ultrafiltration. The above concentration operation was repeated twice more with 10 ml Buffer B supplemented with 10 µM BH4 to give the purified neuronal NOS.
# Nitric oxide formation from NOS was monitored by the hemoglobin capture assay as described previously.
# (§2) The selectivity of an inhibitor is defined as the ratio of the respective Ki values.
# murine iNOS = target: T2, murine iNOS (Mus musculus, UniProt P29477); assay: NOS enzyme inhibitory assay (hemoglobin capture), iNOS; conditions: for IC50: murine iNOS, 10 μM L-arginine
# T2 construct: made in house; host or cells: E. coli (plasmid pCWiNOS)
# Source text: as §1
# Enzyme inhibitory assay. All of the NOS isoforms used are recombinant enzymes overexpressed in E. coli from different sources.
# iNOS expression: An overnight culture of pCWiNOS was used to inoculate (1:100) larger cultures of Terrific Broth media (12 g/L tryptone, 24 g/L yeast extract, 4 mL/L glycerol, 17 mM KH2PO4, and 72 mM K2HPO4) containing 50 μg/mL ampicillin and 34 μg/mL chloramphenicol at 37° C. At an OD600 of ˜0.5, the culture was cooled to 25° C. and induced by the addition of 1 mM IPTG (final concentration). After approximately 24 h of growth at 25° C., the cells were pelleted at 5300×g, transferred to 50 mL conical tubes, and stored at −80° C.
# iNOS purification: Cell pellets from 1.0 L of culture were resuspended in sonication buffer (50 mM Hepes, pH 7.4, 10% glycerol, 10 μg/mL benzamidine, 5 μg/mL leupeptin, 0.2 mM of PMSF, and 1 μg/mL each of pepstatin, chymostatin, and antipain) and lysed by sonication. Centrifugation for 20 min at 13000×g yielded supernatant which contained iNOS active enzyme. iNOS supernatant was loaded onto 1 g of a 2′,5′-ADP-Sepharose 4B resin column. The column was then washed with 20 ml iNOS purification buffer (10 mM K2HPO4, 10% glycerol, 0.5 mM L-arginine, pH 7.4) and 10 μM BH4. Inducible NOS was eluted with 30 ml iNOS purification buffer supplemented with 10 mM 2′(3′)-AMP, 10 μM BH4, and 0.3 M NaCl. The eluent was concentrated to 5 ml by ultrafiltration. The above concentration operation was repeated three times more with 10 ml Hepes buffer supplemented with 10 μM BH4, to give purified inducible NOS.
# (§3) Nitric oxide formation from NOS was monitored by the hemoglobin capture assay as described previously. (Hevel, J. M.; Marletta, M. A. Nitric Oxide Synthase Assays. Methods Enzymol. 1994, […], 250-258).
# as §2
# bovine eNOS = target: T3, bovine eNOS (Bos taurus, UniProt P29473); assay: NOS enzyme inhibitory assay (hemoglobin capture), eNOS; conditions: for IC50: bovine eNOS, 10 μM L-arginine, * = no inhibition observed up to the concentration listed
# T3 construct: made in house; host or cells: E. coli (plasmid Bov-eNOSpCW)
# Procedure: as §1
# Expression of bovine eNOS: An overnight culture of Bov-eNOSpCW was used to inoculate 0.5 liter (in a 2.8-liter Fernbach flask) of modified TB (20 g of yeast extract, 10 g of bacto-tryptone, 2.65 g of KH2PO4, 4.33 g of Na2HPO4 and 4 ml of glycerol per liter) containing ampicillin ([…]) and chloramphenicol ([…]). The cultures were grown to an OD600 of z0.8 at 22° C. (200 rpm) and induced with 0.5 mM IPTG. One hour before IPTG induction, d-aminolevulinic acid (0.5 mM final) was added and, at the time of IPTG induction, riboflavin ([…]) and ATP (1 mM final) were also added. After induction, the flasks were kept in the dark at 22° C. (200 rpm). The cells were harvested 48 h after induction, and the cell pellet was frozen at −80° C. until purification was carried out.
# Purification of bovine eNOS. The purification was typically carried out with eNOS from 2 liters of E. coli culture. The eNOS protein was purified using a modification of the published protocol for nNOS (14). The cells were resuspended in buffer C [50 mM Tris-Cl, pH 7.8, 1 mM EDTA, 1 mM DTT, 10% glycerol (v/v), 150 mM NaCl, 0.1 mM phenylmethylsulfonyl fluoride, […]], lysed by pulsed sonication and then centrifuged to sediment the cell debris. The supernatant was applied to a 2′,5′-ADP Sepharose 4B column equilibrated in buffer D [50 mM Tris-Cl, pH 7.8, 0.1 mM EDTA, 0.1 mM dithiothreitol, 150 mM NaCl, 10% glycerol (v/v)]. The column was washed with 20 column volumes of buffer B and again with 20 column volumes of buffer B containing 600 mM NaCl. Finally, protein was eluted with buffer B containing 600 mM NaCl and 5 mM 2′-AMP. The fractions were screened for absorption in the Soret region (A400) and hemoprotein-containing fractions were pooled and concentrated (Centriprep 50, Amicon). Repeated dilution/concentration [50 mM Tris-Cl, pH 7.8, 0.1 mM EDTA, 0.1 mM dithiothreitol, 10% glycerol (vol/vol)] was used to reach a final concentration of 150 mM NaCl and commensurately reduce the 2′-AMP content. […] The purified eNOS is stored in the presence of 1 mM L-arginine.
# eNOS washing: eNOS contains a significant amount of L-arginine, which will interfere with the enzyme assay. The L-arginine can be removed by several dilution and concentration steps using an Amico concentrator. The dilution buffer is 10 ml Tris-HCl 50 mM containing 0.1 mM EDTA, 400 mM NaCl, 10% glycerol and 1 mM beta-mercaptoethanol. The above dilution and concentration operation was repeated three times to give purified eNOS.
# as §3, §2
# [1] = Table 1a, apparent Ki calculated from IC50, Km […], read-out: calc. Ki iNOS
# [2] = Table 1a, apparent Ki calculated from IC50, Km 1.7 μM, read-out: calc. Ki eNOS
SMILES,Selectivity n/e (rat nNOS),Selectivity n/i (rat nNOS),Ki (rat nNOS),IC50 (rat nNOS),Ki (murine iNOS; [1]),IC50 (murine iNOS; Table 1a),Ki (bovine eNOS; [2]),IC50 (bovine eNOS; Table 1a),"Ki (bovine eNOS; Table 1b, read-out: Ki eNOS)","Ki (murine iNOS; Table 1b, read-out: Ki iNOS)"
Cl.Cl.Nc1cccc(CC2CNCC2O)n1 (racemic) [Compound P-11],49.11,3.64,6.94 µM,60.3 µM,25.2 µM,56 µM,341 µM,2350 µM,,
Cl.Cl.Cl.Nc1cccc(CC2CNCC2NCCCc2ccccc2)n1 (racemic) [Compound P-12],6.42,10.83,13.3 µM,115 µM,144 µM,317 µM,85.2 µM,586 µM,,
CN(C)CCNC1CNCC1Cc1cccc(N)n1 (racemic) [Compound P-15],15.41,19.65,15.7 µM,136 µM,308 µM,679 µM,242 µM,1660 µM,,
Nc1cccc(CC2CNCC2NCC(N)Cc2ccccc2)n1 (racemic) [Compound P-16],>104.83,21.54,13.9 µM,120 µM,299 µM,658 µM,> 1450 µM,> 10000 µM,,
Nc1cccc(CC2CNCC2NCC(N)Cc2ccccc2)n1 (racemic) [Compound P-17],>70.64,20.25,20.6 µM,179 µM,417 µM,919 µM,> 1450 µM,> 10000 µM,,
Nc1cccc(C[C@H]2CNC[C@@H]2NCCNCc2ccccc2)n1 (racemic) [Compound P-18],>703.88,11.49,14.5 µM,126 µM,166 µM,366 µM,,> 70000 µM,,
Nc1cccc(CC2CNCC2NC2CCNC2)n1 (racemic) [Compound P-19],22.00,12.11,20.9 µM,182 µM,253 µM,559 µM,460 µM,3170 µM,,
Nc1cccc(CC2CNCC2NC2CCNC2)n1 (racemic) [Compound P-20],48.67,18.21,12.8 µM,112 µM,234 µM,516 µM,625 µM,4300 µM,,
Nc1cccc(CC2CNCC2NC2CCN(Cc3ccccc3)C2)n1 (racemic) [Compound P-21],6.99,11.70,24.4 µM,212 µM,286 µM,630 µM,171 µM,1170 µM,,
Nc1cccc(CC2CNCC2NC2CCN(Cc3ccccc3)C2)n1 (racemic) [Compound P-22],6.07,11.66,17.9 µM,156 µM,209 µM,461 µM,109 µM,748 µM,,
Cl.Cl.Cl.Nc1cccc(C[C@H]2CNC[C@H]2NCCCc2ccccc2)n1 (racemic) [Compound P-27],27.9,52.43,3.17 µM,27.5 µM,166 µM,366 µM,88.5 µM,609 µM,,
Cc1cc(N)nc(CC2CNCC2N(C)CCNCc2ccc(Cl)cc2)c1 (racemic) [Compound P-64],,,,,,,,,125 µM,
Cc1cc(N)nc(C[C@H]2CNC[C@@H]2N(C)CCNCc2ccc(Cl)cc2)c1 (racemic) [Compound P-69],,,,,,,,,58.1 µM,
"Cc1cc(N)nc(C[C@H]2CNC[C@H]2OCC(=O)NCCc2cccc(F)c2)c1 (racemic) [Compound P-79, (±)-2-{cis-4-[(6-amino-4-methylpyridin-2-yl)methyl]pyrrolidin-3-yloxy}-N-(3-fluorophenethyl)acetamide]",,,,,,,,,125 µM,13 µM
